# According to US20010027248A1, “Novel receptor” (SmithKline Beecham p.l.c., priority 1994, published 2001):
# Target: novel receptor (rat forebrain tissue)
# Experiment: Radioligand saturation binding to the novel receptor in rat forebrain tissue homogenate
# Details: calculated from specific binding over a range of radioligand concentrations, read-out: Kd (dissociation constant)
# Experimental: Adult male Wistar rats were killed and brains removed by dissection. Whole forebrain tissue was dissected out and homogenised in a buffered aqueous medium. The homogenised tissue was washed by centrifugation and resuspended in the same buffer. After centrifugation the resuspended tissue was either used fresh or stored frozen for periods of up to 3 months or more before use.
# Aliquot of tissue prepared as above at a concentration of 1-10 mg protein/ml were mixed with aliquots of [^3H]-compound A dissolved in buffered medium ([…] HEPES, pH7.4). The final concentration of [^3H] compound A in the mixture was in the range of 20-50 nM. The mixture was incubated at room temperature for about 1 hour. [^3H]-compound A bound to the tissue was then separated from unbound [^3H]-compound A by filtration. This filtration was through Whatman glass fibre filters (GF/B or GF/C). The filters were then washed rapidly with ice-cold buffered medium (50 mM HEPES, pH7.4). The amount of radioactivity bound to the tissue trapped on the filters was measured by addition of liquid scintillation cocktail filters followed by counting in a liquid scintillation counter. […]
row,Structure (SMILES),Kd
1,"CC(=O)c1ccc2c(c1)[C@H](NC(=O)c1ccc(F)cc1)[C@@H](O)C(C)(C)O2 [compound A, trans-(+)-6-Acetyl-4S-(4-fluorobenzolamino)-3,4-dihydro-2,2-dimethyl-2H-1-benzopyran-3R-ol]",40 nM

# Tested on: novel receptor
# Experiment: Binding of known anticonvulsant compounds to the novel receptor
# Details: not given
# Excerpt: Alternatively, the binding affinities of non-radio-labelled test compounds may be established by measuring the amount of displacement of a radio-labelled compound which is known to bind to the receptor such as compound (A) and (B) and other compounds mentioned or covered by the aforementioned patents or applications, using conventional techniques.
row,Structure (SMILES),binding to the novel receptor
1,NC(=O)N1c2ccccc2C=Cc2ccccc21 [carbamazepine],do not bind
2,O=C1NC(=O)C(c2ccccc2)(c2ccccc2)N1 [phenytoin],do not bind
3,CCCC(C)C1(CC)C(=O)NC(=O)NC1=O (stereo not drawn) [pentobarbitone],do not bind
4,C=CC(N)CCC(=O)O (stereo not drawn) [vigabatrin],do not bind
5,CN1C(=O)CN=C(c2ccccc2)c2cc(Cl)ccc21 [diazepam],do not bind
6,CCC1(C)CC(=O)NC1=O (stereo not drawn) [ethosuximide],do not bind
7,Nc1nnc(-c2cccc(Cl)c2Cl)c(N)n1 [lamotrigine],do not bind
8,NCC1(CC(=O)O)CCCCC1 [gabapentin],do not bind
